Like-named read-outs stand apart in the source and are kept apart here.
Columns and labels:
TZM-bl cells [1] = test: Cell viability (CytoTox-Glo) in TZM-bl cells; type: cell-based; conditions: Figure 8
Procedure: (§1) Cell viability experiments were carried out using CytoTox-Glo™ Assay (Promega Corp., Madison, WI) and cytotoxicity was analyzed using an MTT-based cell proliferation kit (Boehringer Mannheim, Indianapolis, IN) Both tests were performed according to manufacturer's instructions. MTT is 3-(4,5-dimethylthiazol-2-yl)-2,5-diphenyltetrazolium bromide. Experiments utilizing vaginal epithelial cells (VECs) were carried out as previously described.

gp41 = gp41 (Human immunodeficiency virus type 1 group M subtype B, UniProt P03375); conditions: SPR, BIAcore CM5 chip, HBS-EP pH = 7.4; KD±SEM, average from at least 5 independent experiments
Procedure: (§2) Surface plasmon resonance (SPR) studies were performed on a BIAcore 3000 system (BiaCore AB, Piscataway, NJ), using BIAcore CM5 sensor chips and HBS-EP running buffer (pH = 7.4) containing 10 mM HEPES, 150 mM NaCl, 3 mM EDTA, and 0.005% polysorbate 20. Proteins/peptides were immobilized on a CM5 sensor chip using the amine coupling method. The chip was activated by mixing 400 mM N-ethyl-N-(3-dimethylaminopropyl)-carbodiimide hydrochloride and 100 mM N-hydroxysuccinimide. Residual reactive groups on the chip surface were blocked using 1.0 M ethanolamine/HCl (pH = 8.5). The flow cell-1 chamber, which served as a control, lacked immobilized protein but was treated with N-ethyl-N-(3-dimethylaminopropyl)-carbodiimide hydrochloride, N-hydroxysuccinimide, and ethanolamine/HCl. Binding signals were corrected for nonspecific binding by subtracting the flow cell-1 signal. To regenerate chip surfaces, bound ligands were removed with 10 mM HCl. Data were analyzed with BIAevaluation 4.1 software (Biacore, Piscataway, NJ).

gp120LAV = gp120LAV (Human immunodeficiency virus type 1 group M subtype B, UniProt P03377); conditions: SPR, BIAcore CM5 chip, HBS-EP pH = 7.4; KD±SEM, average from at least 5 independent experiments
Procedure: as §2

gp120BAL = test: SPR binding to gp120BAL; design: species or system HIV-1; conditions: BIAcore CM5 chip, HBS-EP pH = 7.4, KD±SEM, average from at least 5 independent experiments
TZM-bl cells [2] = test: MTT reduction in TZM-bl cells; type: cell-based; conditions: Figure 8
Procedure: as §1

[3] = test system: gp41, gp120BAL and gp120LAV; test: SPR binding to viral glycoproteins (gp41, gp120BAL, gp120LAV); design: species or system HIV-1
[4] = FTIR spectroscopy secondary structure; type: physicochemical
Procedure: Infrared spectra were recorded at 25°C using a Bruker Vector 22™ FTIR spectrometer with a deuterated triglycine sulfate (DTGS) detector, and averaged over 256 scans at a gain of 4 with a resolution of 2 cm^−1. Peptide samples were initially freeze-dried several times from 10 mM HCl in D2O to remove any interfering counter ions and residual H2O. Solution spectra of peptides were made in deuterated 10 mM phosphate buffer, pD = 7.4 (pD = pH+0.4) and in structure promoting mixed solvent-buffer solutions (trifluoroethanol (TFE) or hexafluoroiso propanol (HFIP). Spectra were acquired using a temperature controlled, demountable liquid cell with calcium fluoride windows fitted with a 50 µm thick spacer (Harrick Scientific, Pleasantville, NY). The relative proportions of α-helix, β-turn, β-sheet, and disordered conformations of solution and multilayer IR spectra were determined by Fourier self-deconvolution for band narrowing and area calculations of component peaks of the FTIR spectra using curve-fitting software supplied by Galactic Software (GRAMS/AI, version 8.0; Thermo Electron Corp., Waltham, MA). The frequency limits for the different structures were: α-helix (1662–1645 cm^−1), β-sheet (1637–1613 and 1710–1682 cm^−1), turns (1682–1662 cm^−1), and disordered or random (1650–1637 cm^−1).

[5] = test system: human red blood cells (hRBCs); type: cell-based
Procedure: Heparinized fresh blood (∼3 ml) was collected from an anonymous donor. A 200 µl aliquot was removed and washed 4× with 800 µl of cold PBS at RT for 3 min at ∼500×g. After each centrifugation, 780 µl of supernatant was removed. After the last wash, the supernatant was completely removed and the packed red blood cells were diluted 1∶20 in PBS to prepare a 5% v/v stock suspension of hRBCs.
All experiments were carried out in triplicate using 96-well microplate (Costar 3596) and the OD at 700 nm was monitored every 30 s. employing the SpectraMAX 250 microplate reader (Molecular Devices, Sunnyvale, CA). Controls included PBS, untreated human RBCs, and human RBCs +2.5% Triton (100% lysis). The hemolytic effect was calculated as follows: [drawing 1]

[6] = target: GRFN-1 (self-association); test: SPR self-association of GRFN-1; type: binding; conditions: BIAcore CM5 chip, HBS-EP pH = 7.4, KD±SEM, average from at least 5 independent experiments
[7] = SDS-PAGE in non-reductive conditions; type: physicochemical; conditions: inconclusive
HIV-1 (BaL) = test: p24^gag antigen release assay in PM1 cells; type: cell-based; conditions: MOI = 10^−2, 0.078–5 µM, 37°C/5% CO2, p24 ELISA, day 5 represents peak infection
Procedure: The cells were washed and resuspended in fresh growth media containing vehicle or peptides for 7 days. Supernatants were collected at days 3, 5, and 7 post-infection, and on days 3 and 5 the cells were resuspended in 1 ml of growth medium containing the appropriate concentration of vehicle or peptide. HIV-1 infection was quantified by measuring the amount of p24^gag in the cell supernatants (Perkin Elmer p24 ELISA, Waltham, MA).

[8] = 0.5 mM in 10 mM phosphate buffer pH = 7.5, 25°C
[9] = 0.5 mM in HFIP:10 mM phosphate buffer pH = 7.5 (4∶6, v∶v), 25°C
[10] = 0.5 mM in TFE:10 mM phosphate buffer pH = 7.5 (4∶6, v∶v), 25°C

gp41, sequence (P03375 512-856): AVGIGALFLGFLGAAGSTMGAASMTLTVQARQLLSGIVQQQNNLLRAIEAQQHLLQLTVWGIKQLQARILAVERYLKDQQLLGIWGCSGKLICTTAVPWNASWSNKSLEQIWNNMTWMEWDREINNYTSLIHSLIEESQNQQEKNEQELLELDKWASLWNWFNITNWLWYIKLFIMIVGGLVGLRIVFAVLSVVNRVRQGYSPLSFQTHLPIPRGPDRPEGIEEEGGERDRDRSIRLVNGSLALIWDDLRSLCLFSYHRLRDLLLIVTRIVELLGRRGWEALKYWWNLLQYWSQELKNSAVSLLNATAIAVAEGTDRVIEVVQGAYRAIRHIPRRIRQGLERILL

Substance: Cha-SC-Chg-R-Chg-RSGSY-Cha-DN-Chg-R-Chg-(D)Cys-CONH2 (disulfide) [GRFN-1]
- effect on viability (TZM-bl cells [1]): no effect on viability
- Kd (gp41): 3000 ± 1310 nM
- Kd (gp120LAV): 2240 ± 810 nM
- Kd (gp120BAL): 1060 ± 220 nM
- inhibition of cellular dehydrogenase activity (MTT reduction) (TZM-bl cells [2]): appeared to inhibit cellular dehydrogenase activity (as gauged by MTT reduction) in a dose dependent manner
- binding (in words) [3]: binds gp41, gp120BAL and gp120LAV in a dose dependent manner
- disordered [4, 8]: 27.6%
- turns [4, 8]: 22.4%
- α-helix [4, 8]: 12.4%
- β-sheet [4, 8]: 37.6%
- disordered [4, 9]: 25.8%
- turns [4, 9]: 17.2%
- α-helix [4, 9]: 48.6%
- β-sheet [4, 9]: 8.4%
- disordered [4, 10]: 24.8%
- turns [4, 10]: 20.3%
- α-helix [4, 10]: 23.2%
- β-sheet [4, 10]: 31.7%
- secondary structure (in words) ([4]; TFE:buffer and HFIP:buffer): shift from β-sheet to more helical conformations
- secondary structure (in words) ([4]; aqueous buffer): dominant β-sheet structure
- Hemolysis ([5]; 2.5 µM): 1.2±0.7%
- Hemolysis ([5]; 5 µM): 2.8±2.3%
- Hemolysis ([5]; 10 µM): 7.3±1.3%
- KD (self-association) [6]: 500 ± 130 nM
- apparent size of dimers [7]: ~4.5 kDa
- EC50 (HIV-1 (BaL)): 547 ± 66.1 nM

Source: publication PMC3002932 (PLoS ONE, 2010)
